From ChEMBL document CHEMBL3217509, “Discovery of an HIV integrase inhibitor with an excellent resistance profile” (Medchemcomm, 2013) come the findings set out here.

As a reminder, the pIC50 is the negative decadic logarithm of the IC50, by convention in mol/L. Low values mean a large IC50, high ones a small IC50. The term half-life denotes the time needed for the level to fall by half in the phase considered. A low value points to fast loss. Usually pEC50 stands for −log10 of the EC50, conventionally taken in molar units. The low end stands for a large EC50, the high end for a small EC50. Usually logD stands for the decadic logarithm of the distribution of all forms, ionised or not, between an organic phase and buffer at a given pH.

pEC50, pIC50: −log10 of the molar value. Where only a bound is given, the exact number is not on record here.

The subject of data set [1] is Human immunodeficiency virus 1. The data set is described as follows: Resistance ratio of IC50 for MLV pseudotyped HIV1 NL4-3 expressing integrase V72I/F121Y/T125K/V151L mutant to IC50 for MLV pseudotyped HIV1 NL4-3 expressing wild type integrase. The class given is functional.
Data set [2] in a line: Plasma protein binding in human. Format: ADME, cell-free. The conditions noted are these: read-out: PPB (converted).
Data set [3] can be described thus: Drug metabolism in iv dosed dog urine. The class given is ADME, organism-based, Canis lupus familiaris. The following applies: in vivo.
For data set [4], the system named is Human immunodeficiency virus 1. The data set is described as follows: Antiviral activity against HIV1 NL4-3 infected in human MT2 cells after 3 days by human JC53BL cell-based beta-galactosidase reporter gene assay. The class given is functional, organism-based. The following applies: Human immunodeficiency virus 1, NL4-3, JC53BL, 72 h. For orientation: Reporter assays use an easily measured gene product as a stand-in for the process of interest.

Data set [5] is described as follows: Volume of distribution at steady state in dog at 0.1 mg/kg, iv. Format: ADME, organism-based, Canis lupus familiaris. Set-up: dose 0.1 mg/kg, route intravenous. The following applies: in vivo, read-out: Vdss.
The subject of data set [6] is Human immunodeficiency virus 1. The experiment in a line: Resistance ratio of IC50 for MLV pseudotyped HIV1 NL4-3 expressing integrase E92Q mutant to IC50 for MLV pseudotyped HIV1 NL4-3 expressing wild type integrase. The class given is functional.
For data set [7], the system named is Human immunodeficiency virus 1. The experiment in a line: Resistance ratio of IC50 for MLV pseudotyped HIV1 NL4-3 expressing integrase S153Y mutant to IC50 for MLV pseudotyped HIV1 NL4-3 expressing wild type integrase. Format: functional.
A short description of data set [8]: Half life in healthy human at 100 ug, iv. The class given is ADME, organism-based. The following applies: in vivo.
For data set [9], the system named is Human immunodeficiency virus 1. The experiment in a line: Antiviral activity against HIV1 NL4-3 infected in human PBMC after 5 days by human JC53BL cell-based beta-galactosidase reporter gene assay. The following applies: Human immunodeficiency virus 1, NL4-3, JC53BL, 120 h. Format: functional, organism-based.
A further data set concerns Rattus norvegicus. The data set is described as follows: Toxicity in rat assessed as histopathological abnormalities at 25 times antiviral IC50 administered for 7 days. The class given is organism-based. The following applies: in vivo, 168 h.
The nature of data set [10]: Lipophilicity, log D of the compound. The conditions noted are these: octanol/water. The class given is physicochemical.
Data set [11] can be described thus: Clearance in dog hepatocytes assessed per million of cells. The following applies: read-out: CLH. The class given is ADME, cell-based, Canis lupus familiaris, Hepatocyte.
For data set [12], the system named is Human immunodeficiency virus 1. The data set is described as follows: Resistance ratio of IC50 for MLV pseudotyped HIV1 NL4-3 expressing integrase F121Y mutant to IC50 for MLV pseudotyped HIV1 NL4-3 expressing wild type integrase. The class given is functional.
For data set [13], the system named is Human immunodeficiency virus 1. The experiment in a line: Resistance ratio of IC50 for MLV pseudotyped HIV1 NL4-3 expressing integrase T97A mutant to IC50 for MLV pseudotyped HIV1 NL4-3 expressing wild type integrase. The class given is functional.
A short description of data set [14]: Clearance in rat liver microsomes assessed per mg of protein. Format: ADME. The conditions noted are these: read-out: CLH.
In data set [15] the test system is Human immunodeficiency virus 1. The data set is described as follows: Antiviral activity against HIV1 BaL infected in human PBMC after 5 days by human JC53BL cell-based beta-galactosidase reporter gene assay. The class given is functional, organism-based. The conditions noted are these: Human immunodeficiency virus 1, BaL, 120 h.
The nature of data set [16]: Inhibition of DNA polymerase gamma (unknown origin). Set-up: species or system Homo sapiens.

`COc1cc(F)ccc1Cn1ccc2c3c(ncc21)C(=O)N(O)CC3` [PF-04776548]: the “Ratio IC50” value in [1], in [6], in data set [7], in data set [12] and in data set [13] was less than 10 throughout. Moreover, the fraction unbound in [2] was 0.08. In addition, in data set [3], the Drug metabolism result was “Active”. In addition, the negative logarithm of the IC50 (pIC50) in [4] was 8.82; in data set [16] it was 5.15. Further, the Vd in [5] turned out to be 2 L/kg. Further, the half-life in data set [8] was 2.8 h. Further, the pEC50 was 9.32 in data set [9] and 8.65 in data set [15]. Further, the Activity entry in the data set with Rattus norvegicus is “Non-toxic”. In data set [10], this compound registered a logD of 2.1. The hepatocyte CLint in [11] stood at 17 µL/min/1e6 cells. In addition, in [14], the microsomal CLint was determined as 26 µL/min/mg.
